Test results published in the NIST ThermoML archive (doi:10.1016/j.tca.2010.06.014).
Where “and” joins values, the source holds several entries; their conditions need not be identical. Identical values can stand only once. Numbers after ± are expanded uncertainties.

Conditions: Liquid, DSC

O=[N+]([O-])OCC(CO[N+](=O)[O-])O[N+](=O)[O-] [nitroglycerin]
Conditions | vapor or sublimation pressure
298.15 K | 7e-05 ± 2e-05 kPa and 7.1e-05 ± 1.4e-05 kPa
303.15 K | 0.00014 ± 3e-05 kPa and 0.000137 ± 2.7e-05 kPa
313.15 K | 0.00046 ± 9e-05 kPa and 0.000462 ± 9.2e-05 kPa
323.15 K | 0.0014 ± 0.00028 kPa and 0.001402 ± 0.00028 kPa
333.15 K | 0.00387 ± 0.00077 kPa and 0.003866 ± 0.00077 kPa
343.15 K | 0.00981 ± 0.002 kPa and 0.009811 ± 0.002 kPa
353.15 K | 0.02313 ± 0.0046 kPa
363.15 K | 0.05111 ± 0.01 kPa
373.15 K | 0.1066 ± 0.021 kPa
383.15 K | 0.211 ± 0.042 kPa
393.15 K | 0.3988 ± 0.08 kPa
403.15 K | 0.7228 ± 0.14 kPa
413.15 K | 1.261 ± 0.25 kPa
423.15 K | 2.127 ± 0.43 kPa
433.15 K | 3.475 ± 0.7 kPa
443.15 K | 5.519 ± 1.1 kPa
453.15 K | 8.539 ± 1.7 kPa
463.15 K | 12.9 ± 2.6 kPa
473.15 K | 19.06 ± 3.8 kPa
483.15 K | 27.59 ± 5.5 kPa
493.15 K | 39.2 ± 7.8 kPa
503.15 K | 54.73 ± 11 kPa
513.15 K | 75.19 ± 15 kPa
523.15 K | 101.77 ± 20 kPa
